From ChEMBL document CHEMBL2429866, “New aminoadamantane derivatives with antiproliferative activity” (Med Chem Res, 2013)

How the values were obtained:
SF-268 = experiment: Cytotoxicity against human SF268 cells after 48 hrs by SRB assay; type: functional; conditions: SF-268, 48 h
NCI-H460 = experiment: Cytotoxicity against human NCI-H460 cells after 48 hrs by SRB assay; type: functional; conditions: NCI-H460, 48 h
MCF7 = experiment: Cytotoxicity against human MCF7 cells after 48 hrs by SRB assay; type: functional; conditions: MCF7, 48 h
HCT-116 = experiment: Cytotoxicity against human HCT116 cells after 48 hrs by SRB assay; type: functional; conditions: HCT-116, 48 h
DMS-114 = experiment: Cytotoxicity against human DMS114 cells after 48 hrs by SRB assay; type: functional; conditions: DMS-114, 48 h
U-251 = experiment: Cytotoxicity against human U251 cells after 48 hrs by SRB assay; type: functional; conditions: U-251, 48 h
SK-MEL-28 = experiment: Cytotoxicity against human SK-MEL-28 cells after 48 hrs by SRB assay; type: functional; conditions: SK-MEL-28, 48 h
[1] = Cytotoxicity against human NCI-ADR-RES cells after 48 hrs by SRB assay; type: functional
[2] = (§1) Cytotoxicity against human NHDF cells after 48 hrs by SRB assay; type: cell-based; conditions: NHDF cells
NHDF = experiment: as §1; type: cell-based; conditions: nhdf, 48 h
HCT-15 = experiment: Cytotoxicity against human HCT15 cells after 48 hrs by SRB assay; type: functional; conditions: HCT-15, 48 h
PC-3 = experiment: Cytotoxicity against human PC3 cells after 48 hrs by SRB assay; type: functional; conditions: PC-3, 48 h
DU-145 = experiment: Cytotoxicity against human DU145 cells after 48 hrs by SRB assay; type: functional; conditions: DU-145, 48 h
[3] = Cytotoxicity against human MSC cells after 48 hrs by SRB assay; type: cell-based; conditions: for GI50 at 48 h: MSC cells; for TGI: msc, 48 h
[4] = Cytotoxicity against human CAKI cells after 48 hrs by SRB assay; type: functional
MDA-MB-231 = experiment: Cytotoxicity against human MDA-MB-231 cells after 48 hrs by SRB assay; type: functional; conditions: MDA-MB-231, 48 h
A549 = experiment: Cytotoxicity against human A549 cells after 48 hrs by SRB assay; type: functional; conditions: A549, 48 h
[5] = Cytotoxicity against human EKVX cells after 48 hrs by SRB assay; type: functional
IGROV-1 = experiment: Cytotoxicity against human IGROV1 cells after 48 hrs by SRB assay; type: functional; conditions: IGROV-1, 48 h
OVCAR-5 = experiment: Cytotoxicity against human OVCAR5 cells after 48 hrs by SRB assay; type: functional; conditions: OVCAR-5, 48 h
COLO 205 = experiment: Cytotoxicity against human COLO205 cells after 48 hrs by SRB assay; type: functional; conditions: COLO 205, 48 h
LNCaP = experiment: Cytotoxicity against human LNCAP cells after 48 hrs by SRB assay; type: functional

| Structure (SMILES) | GI50 (SF-268) [µM] | TGI (SF-268) [µM] | GI50 (NCI-H460) [µM] | TGI (NCI-H460) [µM] | GI50 (MCF7) [µM] | TGI (MCF7) [µM] | GI50 (HCT-116) [µM] | TGI (HCT-116) [µM] | GI50 (U-251) [µM] | TGI (U-251) [µM] | also measured |
| --- | --- | --- | --- | --- | --- | --- | --- | --- | --- | --- | --- |
| c1ccc(CC23CC4CC(CC(C4)C2NCCCN2CCOCC2)C3)cc1 (stereo not drawn) | 56.4 | 100 | 50.7 | 100 | 28.9 | 58.5 | 44 | 100 | – | – | – |
| c1ccc(CC23CC4CC(CC(C4)C2NCCCn2ccnc2)C3)cc1 (stereo not drawn) | 28.8 | 62.8 | 31.5 | 67.5 | 27 | 56.1 | 26.8 | 64.7 | – | – | – |
| c1ccc2c(c1)CNC1C3CC4CC(C3)CC21C4 (stereo not drawn) | 100 | 100 | 100 | 100 | 52 | 100 | 63.9 | 100 | – | – | – |
| Cl.NC1C2CC3CC(C2)CC1(Cc1ccc(F)cc1)C3 (stereo not drawn) | 7.83 | 37.4 | 13.7 | 52 | 4.6 | 8.7 | 5.6 | 17.5 | 21.8 | 50.9 | GI50 (DMS-114): 9.38 µM; TGI (DMS-114): 50.4 µM; GI50 (SK-MEL-28): 13.2 µM; TGI (SK-MEL-28): 45 µM; GI50 [1]: 7.4 µM; TGI [1]: 24.4 µM; GI50 at 48 h [2]: 17.9 µM; TGI (NHDF): 52.8 µM; GI50 (HCT-15): 19.4 µM; TGI (HCT-15): 53.8 µM |
| O=c1[nH]cc(F)c(=O)[nH]1 [FLUOROURACIL] | 49.2 | > 100 | 5.95 | > 100 | 8.4 | > 100 | 9.51 | > 100 | – | – | – |
| CN(C)CCCNC1C2CC3CC(C2)CC1(Cc1ccccc1)C3 (stereo not drawn) | 9.09 | 40.9 | 5.78 | 25.8 | 9.11 | 42.9 | 6.76 | 34.8 | – | – | – |
| N[C@@H]1c2ccccc2C23CC4CC(CC(C4)[C@H]12)C3 (relative stereo) | – | – | – | – | – | – | – | – | 33 | 56.6 | GI50 (PC-3): 21.3 µM; TGI (PC-3): 56.7 µM; GI50 (DU-145): 31.4 µM; TGI (DU-145): 66.1 µM |
| c1ccc(CC23CC4CC(CC(C4)C2NCCN2CCNCC2)C3)cc1 (stereo not drawn) | 22.2 | 53.6 | 7.49 | 46.8 | 21.1 | 52.7 | 7.02 | 50 | – | – | – |
| COc1ccc(CC23CC4CC(CC(C4)C2N)C3)cc1.Cl (stereo not drawn) | 21.2 | 50.7 | 31.2 | 62.4 | 7.4 | 42.3 | 18.5 | 52.2 | 31.2 | 58 | GI50 (DMS-114): 40.1 µM; TGI (DMS-114): 73.9 µM; GI50 at 48 h [3]: 24.8 µM; TGI [3]: 56.05 µM; GI50 (SK-MEL-28): 31.8 µM; TGI (SK-MEL-28): 60.7 µM; GI50 [1]: 29.3 µM; TGI [1]: 55.3 µM; GI50 at 48 h [2]: 27.7 µM; TGI (NHDF): 58.8 µM; GI50 (HCT-15): 38.8 µM; TGI (HCT-15): 75 µM |
| c1ccc(CC23CC4CC(CC(C4)C2NCCN2CCCCC2)C3)cc1 (stereo not drawn) | 13.1 | 45.9 | 6.32 | 32.2 | 6.75 | 33.2 | 9.94 | 51.7 | – | – | – |
| COc1cc([C@@H]2c3cc4c(cc3[C@@H](O[C@@H]3O[C@@H]5CO[C@@H](C)O[C@H]5[C@H](O)[C@H]3O)[C@H]3COC(=O)[C@H]23)OCO4)cc(OC)c1O [ETOPOSIDE] | 4.21 | 92.7 | – | – | – | – | – | – | – | – | – |
| Cl.NC1C2CC3CC(C2)CC1(Cc1ccccc1)C3 (stereo not drawn) | 21 | 56.8 | – | – | 5.5 | 9.5 | 6.59 | 35.8 | – | – | GI50 [4]: 6.54 µM; TGI [4]: 26.8 µM; GI50 (MDA-MB-231): 6.68 µM; TGI (MDA-MB-231): 46.6 µM; GI50 (A549): 8.67 µM; TGI (A549): 43.7 µM; GI50 at 48 h [3]: 9.55 µM; TGI [3]: 45.56 µM; GI50 [5]: 6.94 µM; TGI [5]: 29.2 µM; GI50 (IGROV-1): 7.6 µM; TGI (IGROV-1): 36.5 µM; GI50 (OVCAR-5): 8.35 µM; TGI (OVCAR-5): 37.8 µM; GI50 (DU-145): 6.68 µM; TGI (DU-145): 29.8 µM; GI50 (COLO 205): 7.12 µM; TGI (COLO 205): 33.2 µM; GI50 [1]: 6.7 µM; TGI [1]: 30 µM |
| CN(C)CCNC1C2CC3CC(C2)CC1(Cc1ccccc1)C3 (stereo not drawn) | 29.3 | 57.1 | – | – | 25.9 | 54.1 | 24 | 55.9 | – | – | GI50 (DMS-114): 26.5 µM; TGI (DMS-114): 58.1 µM; GI50 (LNCaP): 24.4 µM; TGI (LNCaP): 54.7 µM; GI50 (COLO 205): 25.4 µM; TGI (COLO 205): 59.9 µM |
| N[C@H]1c2ccccc2C23CC4CC(CC(C4)[C@H]12)C3 (relative stereo) | – | – | – | – | 32.6 | 62.5 | – | – | 31.2 | 56.2 | GI50 (LNCaP): 28.5 µM; TGI (LNCaP): 61.2 µM; GI50 (DU-145): 26.6 µM; TGI (DU-145): 37.6 µM; GI50 (COLO 205): 35 µM; TGI (COLO 205): 69.9 µM |
| NC1C2CC3CC(C2)CC1(c1ccccc1)C3 (stereo not drawn) | 100 | 100 | 100 | 100 | 69.3 | 100 | – | – | 100 | 100 | GI50 (PC-3): 82.9 µM; TGI (PC-3): 89.3 µM; GI50 (DU-145): 100 µM; TGI (DU-145): 100 µM; GI50 (COLO 205): 84.5 µM; TGI (COLO 205): 100 µM |
